According to the supplement of paper PMC10627819:

What was measured:
Assay in all cases: Bliss interaction score (quartile over a dose matrix) (fitness difference); higher = more antagonism (negative = synergy)
[1] = test system: S. aureus Newman
How it was run: (§1)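 Fitness here means normalised growth, inferred for single drugs from the combination data. Growth was OD595 at entry into stationary phase, divided by the plate's robust no-drug mean and capped at 1. The Bliss score is observed minus expected fitness, with the expectation being the product, and its quartiles span technical, biological and donor/recipient replicates.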

[2] = test system: S. aureus DSM 20231
How it was run: as §1

[3] = test system: B. subtilis 168
How it was run: as §1

[4] = test system: S. pneumoniae D39V
How it was run: as §1
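Note: first quartile when negative (synergy) and third quartile when positive (antagonism).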

Row | SMILES | Bliss interaction score [1] | Bliss interaction score [2] | Bliss interaction score [3] | Bliss interaction score [4] | Bliss interaction score ([1]; main component drawn) | Bliss interaction score ([2]; main component drawn) | Bliss interaction score ([3]; main component drawn) | Bliss interaction score ([4]; main component drawn)
1 | CCCCCCCCCC(=O)N[C@@H](Cc1c[nH]c2ccccc12)C(=O)N[C@H](CC(N)=O)C(=O)N[C@@H](CC(=O)O)C(=O)N[C@@H]1C(=O)NCC(=O)N[C@@H](CCCN)C(=O)N[C@@H](CC(=O)O)C(=O)N[C@H](C)C(=O)N[C@@H](CC(=O)O)C(=O)NCC(=O)N[C@H](CO)C(=O)N[C@@H]([C@H](C)CC(=O)O)C(=O)N[C@@H](CC(=O)c2ccccc2N)C(=O)O[C@@H]1C [Daptomycin] + Oc1cc(Cl)ccc1Oc1ccc(Cl)cc1Cl [Triclosan] | -0.0264 | 0.0576 | -0.0488 | 0.0768 |  |  |  | 
2 | C[C@H]1COc2c(N3CCN(C)CC3)c(F)cc3c(=O)c(C(=O)O)cn1c23 [Levofloxacin] + CC1(C)S[C@@H]2[C@H](NC(=O)Cc3ccccc3)C(=O)N2[C@H]1C(=O)O [PenicillinG] | -0.0602 | 0.0432 | 0.0528 | -0.103 |  |  |  | 
3 | C[C@H]1COc2c(N3CCN(C)CC3)c(F)cc3c(=O)c(C(=O)O)cn1c23 [Levofloxacin] + CCCCCCCCCC(=O)N[C@@H]1[C@H]([C@@H]([C@H](O[C@H]1OC2=C3C=C4C=C2OC5=C(C=C(C=C5)[C@H]([C@H]6C(=O)N[C@@H](C7=C(C(=CC(=C7)O)OC8[C@H]([C@H]([C@@H]([C@H](O8)CO)O)O)O)C9=C(C=CC(=C9)[C@H](C(=O)N6)NC(=O)[C@@H]4NC(=O)[C@@H]1C2=CC(=CC(=C2)OC2=C(C=CC(=C2)[C@H](C(=O)N[C@H](CC2=CC(=C(O3)C=C2)Cl)C(=O)N1)N)O)O)O)C(=O)O)O[C@H]1[C@@H]([C@H]([C@@H]([C@H](O1)CO)O)O)NC(=O)C)Cl)CO)O)O [Teicoplanin] |  |  |  |  | -0.0552 | -0.0673 | 0.0334 | -0.0681
4 | C[C@H]1COc2c(N3CCN(C)CC3)c(F)cc3c(=O)c(C(=O)O)cn1c23 [Levofloxacin] + CC[C@H]1OC(=O)[C@H](C)C(=O)[C@H](C)[C@@H](O[C@@H]2O[C@H](C)C[C@H](N(C)C)[C@H]2O)[C@](C)(OC)C[C@@H](C)C(=O)[C@H](C)[C@H]2N(CCCCn3cnc(-c4cccnc4)c3)C(=O)O[C@]12C [Telithromycin] | 0.0408 | 0.0361 | 0.0654 | 0.0737 |  |  |  | 
5 | C[C@H]1COc2c(N3CCN(C)CC3)c(F)cc3c(=O)c(C(=O)O)cn1c23 [Levofloxacin] + CN[C@H](CC(C)C)C(=O)N[C@H]1C(=O)N[C@@H](CC(N)=O)C(=O)N[C@H]2C(=O)N[C@H]3C(=O)N[C@H](C(=O)N[C@H](C(=O)O)c4cc(O)cc(O)c4-c4cc3ccc4O)[C@H](O[C@H]3C[C@](C)(N)[C@@H](O)[C@H](C)O3)c3ccc(c(Cl)c3)Oc3cc2cc(c3O[C@@H]2O[C@H](CO)[C@@H](O)[C@H](O)[C@H]2O[C@H]2C[C@](C)(NCc3ccc(-c4ccc(Cl)cc4)cc3)[C@@H](O)[C@H](C)O2)Oc2ccc(cc2Cl)[C@H]1O [Oritavancin] | 0.0454 | 0.0291 | 0.031 | -0.0616 |  |  |  | 
6 | C[C@H]1COc2c(N3CCN(C)CC3)c(F)cc3c(=O)c(C(=O)O)cn1c23 [Levofloxacin] + CO[C@@]12[C@H](COC(N)=O)C3=C(C(=O)C(C)=C(N)C3=O)N1C[C@@H]1N[C@@H]12 [MitomycinC] | 0.0429 | 0.0462 | 0.0422 | -0.0941 |  |  |  | 
7 | C[C@H]1COc2c(N3CCN(C)CC3)c(F)cc3c(=O)c(C(=O)O)cn1c23 [Levofloxacin] + Oc1cc(Cl)ccc1Oc1ccc(Cl)cc1Cl [Triclosan] | -0.0181 | -0.0551 | 0.0373 | 0.054 |  |  |  | 
8 | CN(C)C(=O)C(CCN1CCC(O)(c2ccc(Cl)cc2)CC1)(c1ccccc1)c1ccccc1 [Loperamide] + CC1(C)S[C@@H]2[C@H](NC(=O)Cc3ccccc3)C(=O)N2[C@H]1C(=O)O [PenicillinG] | -0.068 | -0.14 | 0.0464 | -0.249 |  |  |  | 
9 | CN(C)C(=O)C(CCN1CCC(O)(c2ccc(Cl)cc2)CC1)(c1ccccc1)c1ccccc1 [Loperamide] + CCCCCCCCCC(=O)N[C@@H]1[C@H]([C@@H]([C@H](O[C@H]1OC2=C3C=C4C=C2OC5=C(C=C(C=C5)[C@H]([C@H]6C(=O)N[C@@H](C7=C(C(=CC(=C7)O)OC8[C@H]([C@H]([C@@H]([C@H](O8)CO)O)O)O)C9=C(C=CC(=C9)[C@H](C(=O)N6)NC(=O)[C@@H]4NC(=O)[C@@H]1C2=CC(=CC(=C2)OC2=C(C=CC(=C2)[C@H](C(=O)N[C@H](CC2=CC(=C(O3)C=C2)Cl)C(=O)N1)N)O)O)O)C(=O)O)O[C@H]1[C@@H]([C@H]([C@@H]([C@H](O1)CO)O)O)NC(=O)C)Cl)CO)O)O [Teicoplanin] |  |  |  |  | -0.0955 | -0.114 | 0.0883 | -0.0953
10 | CN(C)C(=O)C(CCN1CCC(O)(c2ccc(Cl)cc2)CC1)(c1ccccc1)c1ccccc1 [Loperamide] + CC[C@H]1OC(=O)[C@H](C)C(=O)[C@H](C)[C@@H](O[C@@H]2O[C@H](C)C[C@H](N(C)C)[C@H]2O)[C@](C)(OC)C[C@@H](C)C(=O)[C@H](C)[C@H]2N(CCCCn3cnc(-c4cccnc4)c3)C(=O)O[C@]12C [Telithromycin] | -0.024 | 0.0619 | 0.0814 | 0.0977 |  |  |  | 
11 | CN(C)C(=O)C(CCN1CCC(O)(c2ccc(Cl)cc2)CC1)(c1ccccc1)c1ccccc1 [Loperamide] + CN[C@H](CC(C)C)C(=O)N[C@H]1C(=O)N[C@@H](CC(N)=O)C(=O)N[C@H]2C(=O)N[C@H]3C(=O)N[C@H](C(=O)N[C@H](C(=O)O)c4cc(O)cc(O)c4-c4cc3ccc4O)[C@H](O[C@H]3C[C@](C)(N)[C@@H](O)[C@H](C)O3)c3ccc(c(Cl)c3)Oc3cc2cc(c3O[C@@H]2O[C@H](CO)[C@@H](O)[C@H](O)[C@H]2O[C@H]2C[C@](C)(NCc3ccc(-c4ccc(Cl)cc4)cc3)[C@@H](O)[C@H](C)O2)Oc2ccc(cc2Cl)[C@H]1O [Oritavancin] | -0.062 | -0.11 | 0.0335 | -0.0409 |  |  |  | 
12 | CN(C)C(=O)C(CCN1CCC(O)(c2ccc(Cl)cc2)CC1)(c1ccccc1)c1ccccc1 [Loperamide] + CO[C@@]12[C@H](COC(N)=O)C3=C(C(=O)C(C)=C(N)C3=O)N1C[C@@H]1N[C@@H]12 [MitomycinC] | -0.031 | 0.101 | 0.0277 | 0.105 |  |  |  | 
13 | CN(C)C(=O)C(CCN1CCC(O)(c2ccc(Cl)cc2)CC1)(c1ccccc1)c1ccccc1 [Loperamide] + Oc1cc(Cl)ccc1Oc1ccc(Cl)cc1Cl [Triclosan] | 0.0213 | -0.0746 | 0.0255 | -0.179 |  |  |  | 
14 | CCN(CC)CCOC(=O)c1ccc(N)cc1 [Procaine] + C/C(=C\C(=O)OCCCCCCCCC(=O)O)C[C@@H]1OC[C@H](C[C@@H]2O[C@H]2[C@@H](C)[C@H](C)O)[C@@H](O)[C@H]1O [Pseudomonic acid] | 0.0207 | 0.0122 | 0.0611 | -0.0844 |  |  |  | 
15 | CCN(CC)CCOC(=O)c1ccc(N)cc1 [Procaine] + CC[C@H]1OC(=O)[C@H](C)C(=O)[C@H](C)[C@@H](O[C@@H]2O[C@H](C)C[C@H](N(C)C)[C@H]2O)[C@](C)(OC)C[C@@H](C)C(=O)[C@H](C)[C@H]2N(CCCCn3cnc(-c4cccnc4)c3)C(=O)O[C@]12C [Telithromycin] | 0.0289 | -0.0287 | -0.0224 | 0.0708 |  |  |  | 
16 | CCN(CC)CCOC(=O)c1ccc(N)cc1 [Procaine] + Oc1cc(Cl)ccc1Oc1ccc(Cl)cc1Cl [Triclosan] | -0.0125 | 0.0864 | 0.0507 | -0.0644 |  |  |  | 
17 | Cn1nnc(-c2ccc(-c3ccc(N4C[C@H](CO)OC4=O)cc3F)cn2)n1 [Tedizolid] + CCCCCCCCCC(=O)N[C@@H]1[C@H]([C@@H]([C@H](O[C@H]1OC2=C3C=C4C=C2OC5=C(C=C(C=C5)[C@H]([C@H]6C(=O)N[C@@H](C7=C(C(=CC(=C7)O)OC8[C@H]([C@H]([C@@H]([C@H](O8)CO)O)O)O)C9=C(C=CC(=C9)[C@H](C(=O)N6)NC(=O)[C@@H]4NC(=O)[C@@H]1C2=CC(=CC(=C2)OC2=C(C=CC(=C2)[C@H](C(=O)N[C@H](CC2=CC(=C(O3)C=C2)Cl)C(=O)N1)N)O)O)O)C(=O)O)O[C@H]1[C@@H]([C@H]([C@@H]([C@H](O1)CO)O)O)NC(=O)C)Cl)CO)O)O [Teicoplanin] |  |  |  |  | 0.0811 | -0.083 | 0.065 | 0.295
18 | Cn1nnc(-c2ccc(-c3ccc(N4C[C@H](CO)OC4=O)cc3F)cn2)n1 [Tedizolid] + CC[C@H]1OC(=O)[C@H](C)C(=O)[C@H](C)[C@@H](O[C@@H]2O[C@H](C)C[C@H](N(C)C)[C@H]2O)[C@](C)(OC)C[C@@H](C)C(=O)[C@H](C)[C@H]2N(CCCCn3cnc(-c4cccnc4)c3)C(=O)O[C@]12C [Telithromycin] | -0.0897 | -0.0684 | -0.0463 | -0.0527 |  |  |  | 
